Source: PMC11968394, “The effect of deuterated PLK1 inhibitor on its safety and efficacy in vivo” (Frontiers in Oncology, 2025)
Read-outs that look alike come from different tables or passages of the source.

Assay: Caco-2 permeability assay
Type: in vitro ADME
Details: human; for Papp A→B at 2 h, 5 μM / Papp B→A at 2 h, 5 μM: Caco-2, 5 μM
Experimental: Caco-2 cells were cultured in 10% FBS DMEM for 14-21 days before assays. […] HBSS was added to the opposite chamber. After 2 hours incubation at 37°C, samples were analyzed by LC-MS/MS. Fluorescein leakage was tested by adding 100 μM fluorescein to the upper chamber and measuring fluorescence after 30 minutes.

[1] = Caco-2, Caco-2, B-A, read-out: Recovery B-A%

Row | Compound | recovery at 2 h, 5 μM [1] [%] | Papp A→B at 2 h, 5 μM [×10⁻⁶ cm/s] | Papp B→A at 2 h, 5 μM [×10⁻⁶ cm/s] | recovery at 2 h, 5 μM (Caco-2, Caco-2, A-B, read-out: Recovery A-B%) [%]
1 | CC(C)NCC(O)COc1cccc2ccccc12 (stereo not shown) [Propraolol, Propranolol] | 84.9 | 22.3 | 14.7 | 
2 | C[C@H]1O[C@@H](O[C@H]2[C@@H](O)C[C@H](O[C@H]3[C@@H](O)C[C@H](O[C@H]4CC[C@@]5(C)[C@H](CC[C@@H]6[C@@H]5C[C@@H](O)[C@]5(C)[C@@H](C7=CC(=O)OC7)CC[C@]65O)C4)O[C@@H]3C)O[C@@H]2C)C[C@H](O)[C@@H]1O [Digoxin] | 101 | 0.9 | 26.1 | 78.5
